Data: patent US20250144067A1, “PERSONALIZED STARVATION THERAPY FOR CANCER” (Faeth Therapeutics, Inc., priority 2021, published 2025)
Counter-ions that a name gives are not always drawn.

Columns and labels:
[1] = system: NCI-H292 lung cancer cells; assay: FDA drug screening, complete media vs cholesterol-free media without statin (TABLE 1); assay type: cell-based, human
[2] = system: NCI-H292 lung cancer cells; assay: FDA drug screening, complete media vs cholesterol-free media with simvastatin (TABLE 2); assay type: cell-based, human; conditions: for Cholesterol-free media + simvastatin (0.04 μM) / Complete Media: NCI-H292 cells
[3] = Complete minus Cholesterol-free, greater than 0 enhanced anti-cancer activity, about 0 neutral, below 0 antagonist
[4] = NCI-H292 cells, FDA drug library screen, cholesterol-free media without statin
[5] = NCI-H292 cells, FDA drug library screen, complete media
[6] = FDA library drug in cholesterol-free media with simvastatin 0.04 μM
[7] = FDA library drug in complete media
[8] = complete media vs cholesterol-free media + simvastatin (0.04 μM), >0 enhanced anti-cancer activity, about 0 neutral, <0 antagonist
[9] = cholesterol-free media with simvastatin 0.04 μM, cell growth value in FDA drug screen
[10] = complete media, cell growth value in FDA drug screen
[11] = complete media minus cholesterol-free media + simvastatin, >0 enhanced anti-cancer activity, about 0 neutral, <0 antagonist
[12] = NCI-H292 cells, cholesterol-free media without statin, FDA drug library screen
[13] = NCI-H292 cells, complete media, FDA drug library screen
[14] = FDA drug library screen, cholesterol-free media with simvastatin 0.04 μM
[15] = FDA drug library screen, complete media
[16] = Complete minus Cholesterol-free, […]
[17] = NCI-H292 cells, cholesterol-free media without statin
[18] = NCI-H292 cells in cholesterol-free media without statin
[19] = NCI-H292 cells in complete media
[20] = Complete minus Cholesterol-free, greater than 0 enhanced anti-cancer activity, about 0 neutral, below 0 antagonists
[21] = Complete minus Cholesterol-free, >0 enhanced anti-cancer activity, about 0 neutral, <0 antagonist
[22] = drug in cholesterol-free media with simvastatin 0.04 μM

| Structure (SMILES) | Difference [1, 3] | Cholesterol-free [1, 4] | Complete [1, 5] | Difference [2, 8] | Difference [2, 11] | Cholesterol-free media + simvastatin (0.04 μM) [2, 14] | Complete Media [2, 15] | Cholesterol-free [1, 18] | Complete [1, 19] | other results |
| --- | --- | --- | --- | --- | --- | --- | --- | --- | --- | --- |
| COc1ccccc1OCCNCC(O)COc1cccc2[nH]c3ccccc3c12 (stereo not drawn) [Carvedilol] | −0.18 | 1.133 | 0.9579 | −0.48 |  |  |  |  |  | Cholesterol-free media + simvastatin (0.04 μM) [2, 6]: 1.448; Complete Media [2, 7]: 0.9665 |
| N[C@@H](C(=O)N[C@@H]1C(=O)N2C(C(=O)O)=C(Cl)CS[C@H]12)c1ccccc1 [Cefaclor] | −0.11 | 1.02 | 0.9111 |  | 0.10 |  |  |  |  | Cholesterol-free media + simvastatin (0.04 μM) [2, 9]: 1.593; Complete Media [2, 10]: 1.696 |
| CC1=C(C(=O)O)N2C(=O)[C@@H](NC(=O)[C@H](N)c3ccc(O)cc3)[C@H]2SC1 [Cefadroxil] |  |  |  |  | 0.55 | 1.041 | 1.588 |  |  | Cholesterol-free [1, 12]: 1.424; Complete [1, 13]: 1.685; Difference ([1]; complete vs cholesterol-free media, >0 enhanced anti-cancer activity, about 0 neutral, <0 antagonist): 0.26 |
| Cn1nnnc1SCC1=C(C(=O)[O-])N2C(=O)[C@@H](NC(=O)[C@H](O)c3ccccc3)[C@H]2SC1.[Na+] [Cefamandole (sodium)] | −0.12 | 1.243 | 1.12 | −0.74 |  |  |  |  |  | Cholesterol-free media + simvastatin (0.04 μM) [2, 6]: 2.169; Complete Media [2, 7]: 1.429 |
| CC(=O)OCC1=C(C(=O)O)N2C(=O)[C@@H](NC(=O)CSC(=NC(C)C)NC(C)C)[C@H]2SC1 [Cefathiamidine] |  |  |  |  |  | 0.9136 | 0.833 |  |  | Difference [1, 16]: −0.30; Cholesterol-free [1, 17]: 1.276; Complete ([1]; NCI-H292 cells, complete media): 0.9789; Difference ([2]; complete media vs cholesterol-free media + simvastatin (0.04 μM), […]): −0.08 |
| Cc1nnc(SCC2=C(C(=O)O)N3C(=O)[C@@H](NC(=O)Cn4cc(Cl)c(=O)c(Cl)c4)[C@H]3SC2)s1 [Cefazedone] |  |  |  |  |  | 1.153 | 1.591 | 1.61 | 0.9409 | Difference [1, 16]: −0.67; Difference ([2]; complete media minus cholesterol-free media + simvastatin, […]): 0.44 |
| Cc1nnc(SCC2=C(C(=O)[O-])N3C(=O)[C@@H](NC(=O)Cn4cnnn4)[C@H]3SC2)s1.[Na+] [Cefazolin (sodium)] |  |  |  | −0.30 |  |  |  | 1.776 | 0.9866 | Difference [1, 20]: −0.79; Cholesterol-free media + simvastatin (0.04 μM) [2, 6]: 1.378; Complete Media [2, 7]: 1.076 |
| Cc1nnc(SCC2=C(C(=O)O)N3C(=O)[C@@H](NC(=O)Cn4cnnn4)[C@H]3SC2)s1 [Cefazolin] |  |  |  | −0.13 |  | 1.197 | 1.069 | 1.603 | 1.065 | Difference [1, 20]: −0.54 |
| C=CC1=C(C(=O)O)N2C(=O)[C@@H](NC(=O)/C(=N\O)c3csc(N)n3)[C@H]2SC1 [Cefdinir] |  |  |  | −0.22 |  |  |  |  |  | Difference [1, 21]: −0.24; Cholesterol-free [1, 17]: 1.244; Complete ([1]; NCI-H292 cells, complete media): 0.9998; Cholesterol-free media + simvastatin (0.04 μM) [2, 22]: 1.206; Complete Media ([2]; drug in complete media): 0.987 |
| CO/N=C(\C(=O)N[C@@H]1C(=O)N2C(C(=O)OCOC(=O)C(C)(C)C)=C(/C=C\c3scnc3C)CS[C@H]12)c1csc(N)n1 [Cefditoren (Pivoxil)] |  |  |  |  | 0.05 |  |  |  |  | Difference [1, 21]: −0.05; Cholesterol-free [1, 12]: 1.012; Complete [1, 13]: 0.9665; Cholesterol-free media + simvastatin (0.04 μM) [2, 9]: 0.7736; Complete Media [2, 10]: 0.8262 |
| CO/N=C(\C(=O)N[C@@H]1C(=O)N2C(C(=O)[O-])=C(C[N+]3(C)CCCC3)CS[C@H]12)c1csc(N)n1 [Cefepime (Dihydrochloride Monohydrate)] |  |  |  |  | 0.39 | 1.15 | 1.537 | 1.209 | 0.6874 | Difference [1, 20]: −0.52 |
| CO/N=C(\C(=O)N[C@@H]1C(=O)N2C(C(=O)OCOC(=O)C(C)(C)C)=C(C)CS[C@H]12)c1csc(N)n1.Cl [Cefetamet pivoxil (hydrochloride)] | −0.16 | 1.076 | 0.9196 | −0.21 |  |  |  |  |  | Cholesterol-free media + simvastatin (0.04 μM) [2, 22]: 1.058; Complete Media ([2]; drug in complete media): 0.852 |
| C=CC1=C(C(=O)O)N2C(=O)[C@@H](NC(=O)/C(=N\OCC(=O)O)c3csc(N)n3)[C@H]2SC1 [Cefixime] |  |  |  | −0.24 |  |  |  |  |  | Difference [1, 21]: 0.05; Cholesterol-free [1, 12]: 1.137; Complete [1, 13]: 1.188; Cholesterol-free media + simvastatin (0.04 μM) [2, 22]: 1.663; Complete Media ([2]; drug in complete media): 1.418 |
